According to PubChem BioAssay (NCI):
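Compound exposure: 48 hours, 5 concentrations, 96-well plates. GI50 marks 50% less growth. TGI: total growth inhibition.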

Tests used:
Experiment in all cases: NCI-60 cell line screen, 48 h
SF-295 CNS = tested on: SF-295 CNS
KM12 colon = tested on: KM12 colon
ACHN renal = tested on: ACHN renal
HCT-15 colon = tested on: HCT-15 colon
SK-OV-3 ovarian = tested on: SK-OV-3 ovarian
HOP-92 NSCLC = tested on: HOP-92 NSCLC
T-47D breast = tested on: T-47D breast
SNB-75 CNS = tested on: SNB-75 CNS
HS 578T breast = tested on: HS 578T breast
PC-3 prostate = tested on: PC-3 prostate

Row | SMILES | TGI (SF-295 CNS) [µM] | TGI (KM12 colon) [µM] | TGI (ACHN renal) [µM] | TGI (HCT-15 colon) [µM] | TGI (SK-OV-3 ovarian) [µM] | TGI (HOP-92 NSCLC) [µM] | GI50 (SF-295 CNS) [µM] | GI50 (SK-OV-3 ovarian) [µM] | GI50 (KM12 colon) [µM] | GI50 (T-47D breast) [µM] | TGI (T-47D breast) [µM] | GI50 (ACHN renal) [µM] | GI50 (HOP-92 NSCLC) [µM] | GI50 (HCT-15 colon) [µM] | GI50 (SNB-75 CNS) [µM] | TGI (SNB-75 CNS) [µM] | GI50 (HS 578T breast) [µM] | TGI (HS 578T breast) [µM] | GI50 (PC-3 prostate) [µM] | TGI (PC-3 prostate) [µM]
1 | Cc1ccc([N+]2=NC(c3ccccc3)=NN(c3ccccc3)C2)cc1 | > 100 | > 100 | > 100 | > 100 |  |  |  |  |  |  |  |  |  |  |  |  |  |  |  | 
2 | N#CC(C#N)C(c1ccccc1)c1ccccc1 | > 100 | > 100 | > 100 | > 100 | > 100 | > 100 |  |  |  |  |  |  |  |  |  |  |  |  |  | 
3 | O=C(N/N=C/c1ccc(N(CCCl)CCCl)cc1)c1ccc(C(=O)N/N=C/c2ccc(N(CCCl)CCCl)cc2)cc1 | > 100 | > 100 | > 100 | > 100 | > 100 | 88.3 | 0.213 | 10.5 | 15.8 | 5.54 | > 100 | 6.8 | 4.98 | > 100 | 6.74 | > 100 | 3.54 | > 100 |  | 
4 | CC(CC(=O)Nc1ccc(NC(=O)CC(C)N=NC(N)=O)cc1)N=NC(N)=O (stereo not given) | > 100 | > 100 | > 100 | 33.6 | > 100 | > 100 |  |  |  |  |  |  |  |  |  | > 100 |  |  |  | 
5 | COC1CC(n2cc(F)c(N)nc2=O)OC1CO (stereo not given) | > 100 | > 100 | > 100 | > 100 | > 100 | > 100 |  |  |  |  |  |  |  |  |  | > 100 |  |  |  | 
6 | NC1=Nc2ccccc2Sc2ccccc21 | > 100 | > 100 | > 100 | > 100 | > 100 | > 100 |  |  |  |  |  |  |  |  |  | 53.2 |  |  |  | 
7 | CN(C)C(=S)/N=c1\ss/c(=N\S(=O)(=O)c2ccccc2)n1C | > 100 | > 100 | > 100 | > 100 | > 100 | > 100 |  |  |  |  |  |  |  |  |  | > 100 |  |  |  | 
8 | Cc1cc2nc(-c3ccc(O)c(O)c3)n(Cc3ccc(O)c(O)c3)c2cc1C | 66.3 | > 100 | 59.6 | 35.8 | > 100 | 55 | 20.2 | > 100 | 23.5 | 31.8 | > 100 | 15.3 | 9.7 | 7.1 |  |  | 41.3 | > 100 | 22.5 | > 100
9 | NC(=O)c1nc(-c2ccc(Cl)c(Cl)c2)nc2ccccc12 | > 100 | > 100 | > 100 | > 100 | > 27.3 | 4.74 |  |  |  |  |  |  |  |  |  | 11.7 |  |  |  | 
10 | CC(=O)OC1=C(CC(C)(C)C)C(=O)c2ccccc2C1=O | 70.4 | > 100 | > 100 | > 100 | 66.2 |  |  |  |  |  | > 100 |  |  |  |  | > 100 |  | 50.5 |  | > 100
11 | CCN1CCC(O)(/C=C/c2ccccc2)C(C(=O)/C=C/c2ccccc2)C1 (stereo not given) | 9.73 | 3.44 | 3.23 | 3.84 | 19.7 | 8.76 |  |  |  |  |  |  |  |  |  | 19.2 |  |  |  | 
12 | COC(=O)C(/C(=N\O)C(=O)Nc1ccc(Br)cc1)c1nc2ccccc2[nH]c1=O (stereo not given) | > 100 | > 100 | > 100 | > 100 | > 100 | 97.6 |  |  |  |  |  |  |  |  |  | > 100 |  |  |  | 
13 | CC(=O)/C(=C/N1CCN(C(=O)c2ccco2)C1=S)C(=O)c1ccccc1 | > 50 | > 50 | 17.6 | 18.9 | > 50 | 32.1 | 19.3 | 17.5 | 8.4 | 4.29 | > 50 | 6.9 | 11.1 | 4.71 | 10.9 | 35.9 |  |  | 17.1 | > 50
14 | Cn1cccc1-c1cc(-c2ccccc2)nc(N)c1C#N | > 100 | > 100 | > 100 | > 100 | > 100 |  | > 86.3 | > 100 | > 100 | > 100 | > 100 | > 100 |  | > 100 | > 43 | > 87.9 | > 28.8 | > 100 | > 100 | > 100
15 | C#C[C@@H](CCCC)OC(=O)N[C@H](C)c1ccccc1 | > 100 | > 100 | > 100 |  | > 100 |  |  |  |  |  |  |  |  |  |  | 97.5 |  |  |  | 
16 | COC(=O)C(=O)C(C#N)c1c(Cl)cccc1Cl (stereo not given) | > 100 |  | > 100 | > 100 | > 100 | > 100 |  |  |  |  |  |  |  |  |  | > 100 |  |  |  | 
17 | Nc1ccn(C2CC3OCC3O2)c(=O)n1 (stereo not given) | > 100 | > 100 | > 100 | > 100 | > 100 |  |  |  |  |  | > 100 |  |  |  |  | > 100 |  | > 100 |  | > 100
18 | C[C@H]1CCC2C(OC(=O)[C@@H]2CN(C)C)[C@]2(C)C(=O)C=CC12O (stereo not given in full) | 31.1 | 15.1 | 5.74 |  | 38.6 | 8.03 |  |  |  |  | 13.2 |  |  |  |  | 27.1 |  | > 100 |  | 44.9
19 | O=[N+]([O-])c1ccc2nc(-c3ccc(Cl)cc3)[nH]c2c1 | 42.7 |  | 67.9 | 29.1 | 60.4 | 64.2 |  |  |  |  | 55.7 |  |  |  |  | 68.5 |  | 71.7 |  | 63.6
20 | CC1=CC(=O)N2C(OC[C@@H]2c2ccccc2)O1 (stereo not given in full) | > 100 | > 100 | > 100 | > 100 | > 100 | > 100 |  |  |  |  |  |  |  |  |  | > 100 |  |  |  | 
21 | Cc1nc(-n2nc(-c3ccccc3)cc2-c2ccccc2)sc1C(=O)/C=C/c1cccc([N+](=O)[O-])c1 | 43.1 | 11.4 | > 100 | > 100 | > 100 | 51.1 |  |  |  |  |  |  |  |  |  | 51.7 |  |  |  | 
22 | CC1OC(=O)N2CCC=CC12 (stereo not given) | > 100 | > 100 | > 100 | > 100 | > 100 |  |  |  |  |  |  |  |  |  |  | > 100 |  |  |  | 
23 | COc1cc([C@@H]2c3cc4c(cc3[C@@H](NCc3cccc(F)c3)C3COC(=O)[C@@H]32)OCO4)cc(OC)c1O (stereo not given in full) | > 65 | 17.4 | 4.61 | 20.5 | 35.3 | > 65 |  |  |  |  |  |  |  |  |  | 13.5 |  |  |  | 
